Measured values reported in patent US20010051374A1, “HIGH […] MO[…]” (priority 1997, published 2001).

System: 293 cells
Assay: Coamatic Factor VIII assay of supernatants of 293 cells infected with rAAV
Format: cell-based, human
Set-up: dose or concentration left out as unconfirmed
Settings: etoposide added to medium of cells co-infected with rAAV-80L and rAAV-90H
Method: The heavy and light chain constructs, pKm201-80L and pKm201-90H, were packaged following standard procedures for the production of rAAV (Zhou et al. (1994) J. Exp. Med. 179:1867-1875). rAAV was purified as described (Wang et al. (1995) Proc. Natl. Acad. Sci. USA 92:12416-12420) and used to infect 293 cells plated in 6-well plates. Supernatants of infected cells were collected 48 h after infection and assayed for biologically active factor VIII by Coamatic Factor VIII (KabiVitrum, Stockholm), following the manufacturer's instructions. Normal human plasma (George King Bio-Medical, Inc., Overland Park, Kans.) was used to generate a standard curve. Cells were infected at a multiplicity of infection (MOI) of 6000 rAAV particles per cell. The experiment was done both with and without the addition of etoposide ([…]) to the medium. […] The amount of factor VIII was increased in the presence of etoposide.

## COc1cc([C@@H]2c3cc4c(cc3[C@@H](O[C@@H]3O[C@@H]5CO[C@@H](C)O[C@H]5[C@H](O)[C@H]3O)[C@H]3COC(=O)[C@H]23)OCO4)cc(OC)c1O [etoposide]
  amount of factor VIII: increased
